According to patent US20170342046A1, “Fatty Acid Cysteine-Based Conjugates and Their Use in Treating Medical Disorders” (Catabasis Pharmaceuticals, Inc., priority 2016, published 2017):

Assays:
[1] = tested on: transcription factor Nrf2; assay: Assay to evaluate Nrf2 activity: mRNA of Nrf2 gene expression targets by RT-PCR (HPRT internal control); assay type: cell-based, mouse; conditions: for ΔmRNA/HPRT level for the NQO1 gene / ΔmRNA/HPRT level for the Gclc gene / ΔmRNA/HPRT level for the Gclm gene / ΔmRNA/HPRT level for the Gsta2 gene / ΔmRNA/HPRT level for the HMOX gene / ΔmRNA/HPRT level for the SRXN1 gene / ΔmRNA/HPRT level for the TXNRD1 gene: 24 hours, C2C12
Source text: The transcription factor Nrf2 and its repressor Keap1 regulate a large network of antioxidant genes. The mitochondrial inner membrane is particularly susceptible to damage by reactive oxygen species. Antioxidants can play a large role in preserving the mitochondrial inner membrane and maintaining the integrity of the respiratory chain. Holmstrom et al. (BIOLOGY OPEN (2013) 2, p. 761-770) have also shown that the Nrf2 pathway can potentially control the NADH substrates that are needed for mitochondrial respiration. Activation of the Nrf2 pathway is a way of improving the mitochondrial bioenergetics. The compounds of the invention were evaluated in an assay that was designed to assess the various antioxidant genes that could be regulated by the transcription factor Nrf2.
(§1) Briefly, mouse C2C12 cells were treated with the test compounds when about 70% of the myotubes were differentiated (Day 13). For the assay, cells were treated with the test compounds for 24 hours in low glucose, 0.5% FBS DMEM and 0.1% BSA final concentration. The total RNA was harvested and the relative mRNA expression levels were assessed via RT-PCR with Hypoxanthine phosphoribosyltransferase (“HPRT”) as the internal control. Data were represented as the mean ΔmRNA/HPRT, error bars represent the standard error of the mean (SEM). Significance was determined by student's t-test in comparison to control. The Nrf2 gene expression targets include:
Gclc—Glutamate-cysteine ligase catalytic subunit; Gclm—Glutamate-cysteine ligase modifier subunit;
Gsta2—Glutathione S-transferase A2;
HMOX1—Heme oxygenase 1; NQO1—NAD(P)H dehydrogenase (quinone) 1;
TXNRD1—Thioredoxin reductase 1.
Compound I-1 was evaluated in this assay for any upregulation in the seven Nrf2 gene expression targets listed above.

mouse C2C12 cells = assay: Signs of toxicity seen in the Nrf2 activity assay; assay type: cell-based
Experimental: as §1
The ΔmRNA/HPRT level for NQO1 was selected for this experiment. […] With this covalent conjugate, the two key bioactive components were the N-acetylcysteine amide (NACA) and the omega-3 fatty acid. […] However, the effect was modest and a high concentration of NACA was needed. […] In order to obtain the same level of activity as 12 μM of the fatty acid cysteine conjugate I-1, a much higher concentration of 2,500 μM of NACA was needed. In this assay, the omega-3 fatty acid DHA began to show signs of toxicity at concentration of >25 μM. […] In terms of combination of the individual components, the combination of A (consisting of 312.5 μM of NACA and 3.12 μM of DHA) and the combination of B (consisting of 625 μM of NACA and 6.25 μM of DHA) were used.

[2] = tested on: transcription factor Nrf2; assay: Assay to evaluate Nrf2 activity: mRNA of Nrf2 gene expression targets by RT-PCR (HPRT internal control); assay type: cell-based, mouse; conditions: synergy experiment
C2C12 cells = assay: Metabolic flux analysis: oxygen consumption rate (OCR) in Sea Horse XF96 under H2O2 stress; assay type: cell-based, mouse; conditions: for OCR over time, bioenergetics: treated 4 hours prior to 1 mM H2O2 stress; for OCR corrected for antimycin A, mitochondrial bioenergetics / OCR upon the addition of FCCP: 1 mM H2O2 stress
Experimental: C2C12 cells were cultured in Sea Horse XF96 plates according to the manufacturer's instructions and established protocols (see www.seahorsebio.com/products/instruments/selection.php; Yao et al., PROC. NATL. ACAD. SCI. USA (2009) 106, p. 14670-14675).
On the day of the assay, cells were incubated with the compounds of the invention for either 4 hours or 24 hours. The short 4 hour incubation with the test compounds allowed one to evaluate for improvement of mitochondrial bioenergetics under the “scavengers” conditions (i.e. conditions in which the test compounds could effectively scavenge the various reactive oxygen species). The longer 24 hour incubation with the test compounds allowed one to evaluate for improvement of mitochondrial bioenergetics under the Nrf2 conditions (i.e. conditions in which the test compounds could effectively activate the Nrf2 antioxidant pathway in order to cope with the various reactive oxygen species). For these assays, H2O2 was used as the source of reactive oxygen species. Under the general stress test, cells were then exposed to either 500 μM of H2O2 or 1 mM of H2O2 for 4 hours before the evaluation in the Sea Horse system. Baseline measurements of the oxygen consumption rate (OCR) were taken before sequential injections of the various mitochondrial inhibitors. Readings were taken after addition of the mitochondrial inhibitor before injection of the subsequent inhibitors. The mitochondrial inhibitors that were used included oligomycin (1 μM), FCCP (1 μM) and Antimycin A (1 μM). Oligomycin is a known inhibitor ATP synthase; addition of this reagent essentially stopped the synthesis of ATP. Antimycin A inhibits the electron transport chain in the mitochondria. FCCP essentially uncouples the mitochondria and allows one to measure the maximum respiration. Measurements of the OCR following the addition of FCCP allows one to assess the mitochondrial content. An improvement in the OCR following the addition of FCCP is a reflection of the improvement in bioenergetics, when the proper control groups were put in place. The OCR were automatically calculated and recorded by the Sea Horse XF96 software. Ten measurements were taken at each of the indicated time points. Statistical significance in different treatment groups were determined by an ANOVA, followed by a Newman-Keuls post hoc analysis. Compounds I-1, I-3 and 1-5 were evaluated for mitochondrial bioenergetics under various conditions.

[3] = tested on: human epithelial cells from CF patients with homozygous ΔF508 mutation; conditions: 250 μM; cited from earlier work

CC/C=C\C/C=C\C/C=C\C/C=C\C/C=C\C/C=C\CCC(=O)O [DHA, all-cis-4,7,10,13,16,19-docosahexaenoic acid, reference compound]
mRNA level of the NQO1 gene ([1]; tested at up to 12 μM, FIG. 6): did not observe any upregulation | concentration at which signs of toxicity began to show (mouse C2C12 cells): > 25 µM

CC/C=C\C/C=C\C/C=C\C/C=C\C/C=C\C/C=C\CCC(=O)N[C@@H](CSSC(C)(C)CNC(=O)c1cccnc1)C(N)=O [I-1, N-(2-(((R)-3-amino-2-((4Z,7Z,10Z,13Z,16Z,19Z)-docosa-4,7,10,13,16,19-hexaenamido)-3-oxopropyl)disulfanyl)-2-methylpropyl)nicotinamide]
ΔmRNA/HPRT level for the NQO1 gene ([1]; 6.25 μM): an increase in the expression of mRNA | ΔmRNA/HPRT level for the Gclc gene ([1]; 12.5 μM): significant increase in the expression of mRNA | ΔmRNA/HPRT level for the Gclm gene ([1]; 12.5 μM): significant increase in the expression of mRNA | ΔmRNA/HPRT level for the Gsta2 gene ([1]; 12.5 μM): significant increase in the expression of mRNA | ΔmRNA/HPRT level for the HMOX gene ([1]; 12.5 μM): significant increase in the expression of mRNA | ΔmRNA/HPRT level for the NQO1 gene ([1]; 12.5 μM): two-fold increase | ΔmRNA/HPRT level for the SRXN1 gene ([1]; 12.5 μM): significant increase in the expression of mRNA | ΔmRNA/HPRT level for the TXNRD1 gene ([1]; 12.5 μM): significant increase in the expression of mRNA | ΔmRNA/HPRT level for the NQO1 gene ([1]; 1.56 to 3.12 μM): No significant increase | ΔmRNA/HPRT level for the Gclc gene ([1]; 1.56 to 6.25 μM): No significant increase | ΔmRNA/HPRT level for the Gclm gene ([1]; 1.56 to 6.25 μM): No significant increase | ΔmRNA/HPRT level for the Gsta2 gene ([1]; 1.56 to 6.25 μM): No significant increase | ΔmRNA/HPRT level for the HMOX gene ([1]; 1.56 to 6.25 μM): No significant increase | ΔmRNA/HPRT level for the SRXN1 gene ([1]; 1.56 to 6.25 μM): No significant increase | ΔmRNA/HPRT level for the TXNRD1 gene ([1]; 1.56 to 6.25 μM): No significant increase | Nrf2 pathway activation compared with individual components or their combination ([1]; NQO1 mRNA, FIG. 6): able to increase the Nrf2 pathway synergistically | concentration at which maximal response of NQO1 mRNA was observed ([1]; synergy experiment, FIG. 6): 12 µM | expression of mRNA of NQO1, dose response (FIG. 6) [2]: dose-dependent increase in the expression of mRNA of NQO1 | OCR over time, bioenergetics (FIG. 2A) (C2C12 cells; 1 μM and 10 μM, treated 24 hours prior to 500 μM H2O2 stress): significant improvement in bioenergetics, and the effect was dose-dependent | OCR upon the addition of FCCP (FIG. 1A) (C2C12 cells; 1 μM compound, treated 4 hours, then 500 μM H2O2 stress): significant restoration of the OCR upon the addition of FCCP, essentially to the same level observed with the normal control group and the positive control groups | OCR corrected for antimycin A, mitochondrial bioenergetics (FIG. 1B) (C2C12 cells; 1 μM or 10 μM, 4 hours, 500 μM H2O2 stress): restored mitochondrial bioenergetics to about the same level observed with normal cells | OCR corrected for antimycin A, bioenergetics (FIG. 2B) (C2C12 cells; 1 μM, 24 hours, 500 μM H2O2 stress): restored the bioenergetics to the same level observed with the normal control group | OCR upon the addition of FCCP (FIG. 1A) (C2C12 cells; 10 μM compound, treated 4 hours, then 500 μM H2O2 stress): significant restoration of the OCR upon the addition of FCCP, essentially to the same level observed with the normal control group and the positive control groups | OCR over time compared with control group and the two positive control groups (FIG. 2A) (C2C12 cells; 10 μM, 24 hours, 500 μM H2O2 stress): considerably higher | increase in the OCR compared with the two positive control groups (catalase or NAC) (FIG. 2B) (C2C12 cells; 10 μM, 24 hours, 500 μM H2O2 stress, corrected for antimycin A): ~4 fold

CC/C=C\C/C=C\C/C=C\C/C=C\C/C=C\C/C=C\CCC(=O)N[C@@H](CSSC(C)(C)CNC(=O)c1cccnc1)C(=O)O [I-3, N-((4Z,7Z,10Z,13Z,16Z,19Z)-docosa-4,7,10,13,16,19-hexaenoyl)-S-((2-methyl-1-(nicotinamido)propan-2-yl)thio)-L-cysteine]
OCR over time, bioenergetics (C2C12 cells; 1 μM and 10 μM): dose-dependent increase in bioenergetics | OCR corrected for antimycin A, mitochondrial bioenergetics (C2C12 cells; 10 μM, 4 hours): significant improvement in mitochondrial bioenergetics, essentially comparable to the positive control NAC

CC/C=C\C/C=C\C/C=C\C/C=C\C/C=C\C/C=C\CCC(=O)N[C@@H](CSSC(C)(C)CNC(=O)CC(O)C[N+](C)(C)C)C(N)=O (stereo partly drawn) [I-5, 4-((2-(((R)-3-amino-2-((4Z,7Z,10Z,13Z,16Z,19Z)-docosa-4,7,10,13,16,19-hexaenamido)-3-oxopropyl)disulfanyl)-2-methylpropyl)amino)-2-hydroxy-N,N,N-trimethyl-4-oxobutan-1-aminium]
OCR over time, bioenergetics (C2C12 cells; 1 μM and 10 μM): dose-dependent increase in bioenergetics | OCR corrected for antimycin A, mitochondrial bioenergetics (C2C12 cells; 10 μM, 4 hours): significant improvement in mitochondrial bioenergetics, essentially comparable to the two positive control arms, catalase or NAC

CC(=O)N[C@@H](CS)C(=O)O [NAC, N-acetyl cysteine, reference compound]
OCR upon the addition of FCCP (FIG. 1A) (C2C12 cells; 5 mM NAC positive control, 4 hours, 500 μM H2O2 stress): significant restoration of the OCR upon the addition of FCCP | OCR upon the addition of FCCP (C2C12 cells; 5 mM NAC positive control, 4 hours): increase in the OCR upon the addition of FCCP; almost to the same level observed with the normal control groups

NCCSSCCN [cystamine]
CFTR at the plasma membrane [3]: restoration of the CFTR to the plasma membrane | autophagy [3]: up-regulation of autophagy

catalase [reference compound]
OCR upon the addition of FCCP (FIG. 1A) (C2C12 cells; 5K U/mL catalase positive control, 4 hours, 500 μM H2O2 stress): significant restoration of the OCR upon the addition of FCCP | OCR upon the addition of FCCP (C2C12 cells; 5K U/mL catalase positive control, 4 hours): increase in the OCR upon the addition of FCCP; almost to the same level observed with the normal control groups
